Results: ChEMBL document CHEMBL2021887, “Olean-18-ene triterpenoids from Celastraceae species inhibit HIV replication targeting NF-kB and Sp1 dependent transcription” (Eur J Med Chem, 2012)
Activity calls are given as the source filed them. No cut-off for these calls is given here.

Legend:
MT2 [1] = test: Cytotoxicity against non-infected human MT2 cells at 10 uM after 48 hrs by CellTiter Glo assay; assay type: cell-based; settings: mt2, 48 h
[2] = test system: Human immunodeficiency virus 1; test: Antiviral activity against X4 tropic HIV1 pNL4.3-Ren infected in human MT2 cells dosed simultaneously with virus infection measured 48 hrs post-infection by recombinant virus assay; assay type: functional, organism-based; settings: Human immunodeficiency virus 1, pNL4.3-Ren, MT2, 48 h
[3] = Cytotoxicity against non-infected human MT2 cells after 48 hrs by CellTiter Glo assay; assay type: cell-based
[4] = test system: Human immunodeficiency virus 1; test: Antiviral activity against X4 tropic HIV1 pNL4.3-Ren infected in human MT2 cells at 10 uM dosed simultaneously with virus infection measured 48 hrs post-infection by recombinant virus assay; assay type: functional; settings: Human immunodeficiency virus 1, pNL4.3-Ren, MT2, 48 h; values are per cent of control
[5] = test system: Human immunodeficiency virus 1; test: Antiviral activity against luciferase tagged VSV envelope pseudotyped HIV1 infected in human MT2 cells dosed simultaneously with virus infection measured 48 hrs post-infection by recombinant virus assay; assay type: functional, organism-based; settings: Human immunodeficiency virus 1, MT2, 48 h
MT2 [6] = test: Inhibition of Sp1 transcription in X4 tropic HIV1 pNL4.3-Luc transfected human MT2 cells at 20 uM dosed post transfection and measured 24 hrs post compound dose by luciferase reporter gene assay; assay type: functional
MT2 [7] = test: Inhibition of NFkappaB transcription in X4 tropic HIV1 pNL4.3-Luc transfected human MT2 cells at 20 uM dosed post transfection and measured 24 hrs post compound dose by luciferase reporter gene assay; assay type: functional
[8] = test system: Human immunodeficiency virus 1; test: Inhibition of viral transcription in X4 tropic HIV1 pNL4.3-Luc transfected human MT2 cells at 20 uM dosed post transfection and measured 24 hrs post compound dose by luciferase reporter gene assay; assay type: functional; settings: Human immunodeficiency virus 1, pNL4.3-Luc, MT2, 24 h; read-out: INH

| SMILES | Activity (MT2 [1]) | IC50 [2] | CC50 at 48 h [3] | residual activity at 10 µM [4] | IC50 [5] | inhibition (MT2 [6]) | inhibition (MT2 [7]) | percent inhibition at 20 µM [8] |
| --- | --- | --- | --- | --- | --- | --- | --- | --- |
| CC1(C)C=C2[C@H]3CC[C@@H]4[C@@]5(C)CC[C@H](O)C(C)(C)[C@@H]5[C@H](O)C[C@@]4(C)[C@]3(C)CC[C@@]2(C)CC1 | 5% | 11.6 µM | 25.5 µM | 1% | 4.32 µM | – | – | – |
| CC1(C)C=C2[C@H]3CC[C@@H]4[C@@]5(C)CCC(=O)C(C)(C)[C@@H]5CC[C@@]4(C)[C@]3(C)CC[C@@]2(C)C[C@H]1O | 74% | 20 µM | > 100 µM | 22% | 20 µM | Active | Active | < 50% |
| CC(=O)O[C@H]1CC[C@]2(C)[C@H]3CC[C@@H]4C5=CC(C)(C)CC[C@]5(C)CC[C@@]4(C)[C@]3(C)C[C@@H](O)[C@H]2C1(C)C | 124% | – | – | 102% | – | – | – | – |
| CC(=O)OC[C@@]1(C)C=C2[C@H]3CC[C@@H]4[C@@]5(C)CCC(=O)C(C)(C)[C@@H]5CC[C@@]4(C)[C@]3(C)CC[C@@]2(C)CC1 | 116% | – | – | 116% | – | – | – | – |
| CC1(C)C=C2[C@H]3C[C@@H](O)[C@@H]4[C@@]5(C)CC[C@H](O)C(C)(C)[C@@H]5CC[C@@]4(C)[C@]3(C)CC[C@@]2(CO)CC1 | – | – | – | 78% | – | – | – | – |
| CC1(C)C=C2[C@H]3CC[C@@H]4[C@@]5(C)CCC(=O)C(C)(C)[C@@H]5[C@H](O)C[C@@]4(C)[C@]3(C)CC[C@@]2(C)CC1 | 222% | 23.8 µM | > 100 µM | 28% | 5.14 µM | Active | Active | < 50% |
| CC1(C)C=C2[C@H]3CC[C@@H]4[C@@]5(C)CC[C@H](O)C(C)(C)[C@@H]5CC[C@@]4(C)[C@]3(C)CC[C@@]2(C)C[C@H]1O | 69% | 64.4 µM | > 100 µM | 18% | 54.3 µM | Active | Active | < 50% |
| CC1(C)[C@@H](O)CC[C@]2(C)[C@H]3CC[C@@H]4C5=C[C@](C)(CO)CC[C@]5(C)CC[C@@]4(C)[C@]3(C)CC[C@@H]12 | 67% | 10.4 µM | > 100 µM | 17% | 6.56 µM | Active | Active | < 50% |
| CC1(C)C=C2[C@H]3CC[C@@H]4[C@@]5(C)CCC(=O)C(C)(C)[C@@H]5CC[C@@]4(C)[C@]3(C)CC[C@@]2(C)CC1 [GERMANICONE] | – | – | – | 84% | – | – | – | – |
| CC1(C)C=C2[C@H]3C[C@@H](O)[C@@H]4[C@@]5(C)CC[C@H](O)C(C)(C)[C@@H]5CC[C@@]4(C)[C@]3(C)CC[C@@]2(C)CC1 [NIVADIOL] | – | – | – | 121% | – | – | – | – |
| CC1(C)C=C2[C@H]3CC[C@@H]4[C@@]5(C)CC[C@H](O)C(C)(C)[C@@H]5CC[C@@]4(C)[C@]3(C)CC[C@@]2(C)CC1 [GERMANICOL] | – | – | – | 86% | – | – | – | – |
| CC1(C)C(=O)CC[C@]2(C)[C@H]3CC[C@@H]4C5=C[C@](C)(CO)CC[C@]5(C)CC[C@@]4(C)[C@]3(C)CC[C@@H]12 | – | – | – | 50% | – | – | – | – |
| CC1(C)C(=O)CC[C@]2(C)[C@H]3CC[C@@H]4C5=C[C@](C)(CO)CC[C@]5(C)CC[C@@]4(C)[C@]3(C)C[C@@H](O)[C@@H]12 | 62% | 65.6 µM | > 100 µM | 16% | 20 µM | Active | Active | < 50% |
| CC1(C)C=C2[C@H]3CC[C@@H]4[C@@]5(C)CCC(=O)C(C)(C)[C@@H]5CC[C@@]4(C)[C@]3(C)CC[C@@]2(C)CC1=O | 222% | 4.04 µM | > 100 µM | 14% | 3.2 µM | Active | Active | < 50% |
| CC(=O)O[C@H]1CC[C@]2(C)[C@H]3CC[C@@H]4C5=CC(C)(C)[C@H](OC(C)=O)C[C@]5(C)CC[C@@]4(C)[C@]3(C)CC[C@H]2C1(C)C | 93% | – | – | 107% | – | – | – | – |
